Results published in US9289447B2, “Chemotherapeutic methods and compositions” (Gilead Biologics, Inc., priority 2009, dated 2016).

T1: LOXL2 (Homo sapiens, UniProt Q9Y4K0)
T1 sequence (Q9Y4K0 26-774): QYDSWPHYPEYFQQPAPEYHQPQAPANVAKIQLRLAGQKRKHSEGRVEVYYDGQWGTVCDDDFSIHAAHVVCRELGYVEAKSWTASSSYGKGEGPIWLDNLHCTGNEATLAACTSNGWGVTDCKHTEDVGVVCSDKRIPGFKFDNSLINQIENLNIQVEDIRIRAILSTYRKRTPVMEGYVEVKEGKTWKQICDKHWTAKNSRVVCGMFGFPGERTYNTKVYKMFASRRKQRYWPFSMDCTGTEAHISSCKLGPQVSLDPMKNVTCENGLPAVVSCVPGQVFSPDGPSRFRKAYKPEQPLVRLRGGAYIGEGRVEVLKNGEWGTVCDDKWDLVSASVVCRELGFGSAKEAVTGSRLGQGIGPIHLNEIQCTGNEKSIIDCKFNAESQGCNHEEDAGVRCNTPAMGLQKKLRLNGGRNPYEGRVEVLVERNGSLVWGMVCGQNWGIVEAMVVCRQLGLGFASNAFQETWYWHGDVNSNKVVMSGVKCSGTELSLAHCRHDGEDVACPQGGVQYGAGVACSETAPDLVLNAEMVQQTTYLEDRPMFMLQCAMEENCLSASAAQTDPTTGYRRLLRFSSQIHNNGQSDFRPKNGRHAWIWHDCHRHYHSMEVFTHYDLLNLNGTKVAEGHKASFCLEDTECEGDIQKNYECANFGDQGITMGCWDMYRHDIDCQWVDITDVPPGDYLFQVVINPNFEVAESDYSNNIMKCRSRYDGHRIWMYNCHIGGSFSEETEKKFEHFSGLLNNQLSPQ


What was measured:
MDA-MB-435 cells = test: Chemotherapeutic sensitivity of MDA-MB-435 cells on extracellular matrices with anti-LOXL2 antibody; type: cell-based, human; settings: MDA-MB-435 cells plated on different extracellular matrices
Protocol: (§1) MDA-MB-435 cells (breast adenocarcinoma cell lines, ATCC, Manassas, Va.) are resuspended in medium containing 10-50 μg/mL anti-LOXL2 or control IgG antibody. Cells are seeded into 96 well tissue culture plates (10^3-10^4 cells in 100 μL per well) coated with poly-L-lysine, collagen I, collagen IV, fibronectin, or Matrigel™ (BD Biosciences, San Jose, Calif.). Alternatively, cells are plated in standard 96 well tissue culture plates (Costar, VWR International, West Chester, Pa.). Cells are incubated overnight at 37° C. in a 5% CO2 incubator. After sixteen to twenty hours, various concentrations of cisplatin (DDP), methotrexate, doxorubicin, docetaxel, gemcitabine, or 5-FU are added. Cells are incubated for 3-5 days at 37° C. in a 5% CO2 incubator, and the number of remaining live cells are quantified using the Cell Titer-Glo® luminescent cell viability assay (Promega, Madison, Wis.) according to the manufacturer's instructions. For each condition, samples are assayed in triplicate. The data are analyzed using GraphPad Prism software (or equivalent) to calculate IC50 values from a 4-parameter logistic equation.

Panc-1 cells = test: Chemotherapeutic sensitivity of Panc-1 cells on extracellular matrices with anti-LOXL2 antibody; type: cell-based; settings: Panc-1 cells plated on different extracellular matrices
Protocol: as §1, with “Panc-1 or Capan-1” for “MDA-MB-435”, “(pancreas” for “(breast”, “gemcitabine, docetaxel,” for “cisplatin (DDP), methotrexate,”, “5-FU” for “docetaxel, gemcitabine,”, “erlotinib” for “5-FU”

Capan-1 cells = test: Chemotherapeutic sensitivity of Capan-1 cells on extracellular matrices with anti-LOXL2 antibody; type: cell-based; settings: Capan-1 cells plated on different extracellular matrices
Protocol: as §1, with “Panc-1 or Capan-1” for “MDA-MB-435”, “(pancreas” for “(breast”, “gemcitabine, docetaxel,” for “cisplatin (DDP), methotrexate,”, “5-FU” for “docetaxel, gemcitabine,”, “erlotinib” for “5-FU”

MDA231 cells = test: Erlotinib sensitivity (live cell number) of siRNA-transfected MDA231 cells; type: cell-based, human; settings: for effect of siRNA transfection on sensitivity of the cells to erlotinib: MDA 231 cells grown on collagen, 5 days exposure to erlotinib; for effect of siRNA on sensitivity of the cells to erlotinib: MDA 231 cells grown on tissue culture plastic, separate experiments
Protocol: Cells from each of the four aforementioned lines were seeded at 3,000 cells per well in 96-well plates (VWR International, West Chester, Pa.), and cultured in Dulbecco's Modified Eagle's Medium supplemented with 10% fetal bovine serum (DMEM/FBS) at 37° C., 5% CO2 and atmospheric oxygen. Cells were cultured either in untreated wells or in collagen-coated wells, obtained or prepared as described above. Twenty-four hours later, medium was replaced with fresh medium containing various concentrations of erlotinib (LC Laboratories, Woburn, Mass.), cisplatin (Calbiochem, Gibbstown, N.J.) or methotrexate (Calbiochem, Gibbstown, N.J.). After 5 days' culture in the presence of the drug, live cell numbers were determined using the Cell Titer-Glo® luminescent cell viability assay (Promega, San Luis Obispo, Calif.) according to the manufacturer's instructions. For each cell line, three samples were assayed at each drug concentration.
(§2) MDA231 cells were seeded at 7,500 cells per well in 96-well plates (VWR International, West Chester, Pa.) in DMEM/FBS at 37° C., 5% CO2 and atmospheric oxygen. Cells were transfected at the time of seeding with […] RNA oligonucleotide, using the Dharmafect transfection reagent according to the manufacturer's instructions (Thermo Scientific, Lafayette, Colo.). Twenty-four hours later, the medium was replaced with medium containing various concentrations of erlotinib (LC Laboratories, Woburn, Mass.). After 5 days continuous exposure to drug, live cell number was determined as described in Example 1. For each condition, (LOX siRNA, LOXL2 siRNA, or non-targeting siRNA), three samples were assayed at each drug concentration. In addition, levels of mRNAs encoding LOX and LOXL 2 were determined in the in the samples transfected with the LOX- and LOXL2-targeted siRNAs, and normalized to levels of RPL19 mRNA (which encodes a ribosomal protein).

LOX mRNA = test: Quantitative PCR of LOX mRNA in siRNA-transfected MDA 231 cells; type: cell-based, human; settings: normalized to RPL19 mRNA, compared to non-targeting siRNA, FIG. 13
Protocol: as §2, with “For each condition, (LOX siRNA, LOXL2 siRNA, or non-targeting siRNA), three samples were assayed at each drug concentration.” left out
(§3) For RNA analysis, mRNA was harvested using an RNEasy Mini kit (Qiagen, Valencia, Calif.) according to the manufacturer's instructions. A quantitative PCR reaction was assembled using the Brilliant II Core reagent kit according to the manufacturer's instructions (Agilent Technologies, Cedar Creek, Tex.). The quantitative PCR reaction cycle was as follows: 30 min at 50° C., 10 min at 95° C. and 40 cycles of 15 sec at 95° C. in combination with 1 min at 60° C.

LOXL2 mRNA = test: Quantitative PCR of LOXL2 mRNA in siRNA-transfected MDA 231 cells; type: cell-based, human; settings: normalized to RPL19 mRNA, compared to non-targeting siRNA, FIG. 13
Protocol: as §2, with “For each condition, (LOX siRNA, LOXL2 siRNA, or non-targeting siRNA), three samples were assayed at each drug concentration.” left out
as §3

LOXL2 [1] = molecular target: T1, LOXL2; settings: as disclosed in US 2009/0053224; cited from earlier work
LOXL2 [2] = molecular target: T1, LOXL2; settings: as disclosed in US 2009/0053224; cited from earlier work; remark: listed apart in the source

Molecule | sensitivity of cells to the chemotherapeutic in the presence of anti-LOXL2 antibodies (MDA-MB-435 cells) | sensitivity of cells to the chemotherapeutic in the presence of anti-LOXL2 antibodies (Panc-1 cells) | sensitivity of cells to the chemotherapeutic in the presence of anti-LOXL2 antibodies (Capan-1 cells) | other results
O=c1[nH]cc(F)c(=O)[nH]1 [5-FU, 5-fluorouracil] | increased sensitivity | increased sensitivity | increased sensitivity | 
N.N.[Cl][Pt][Cl] [cisplatin (DDP), cis-diaminedichloroplatinum(II)] | increased sensitivity |  |  | 
CC(=O)O[C@@]12CO[C@@H]1C[C@H](O)[C@@]1(C)C(=O)[C@H](O)C3=C(C)[C@@H](OC(=O)[C@H](O)[C@@H](NC(=O)OC(C)(C)C)c4ccccc4)C[C@@](O)([C@@H](OC(=O)c4ccccc4)[C@H]21)C3(C)C [docetaxel] | increased sensitivity | increased sensitivity | increased sensitivity | 
COc1cccc2c1C(=O)c1c(O)c3c(c(O)c1C2=O)C[C@@](O)(C(=O)CO)C[C@@H]3O[C@H]1C[C@H](N)[C@H](O)[C@H](C)O1 [doxorubicin] | increased sensitivity | increased sensitivity | increased sensitivity | 
C#Cc1cccc(Nc2ncnc3cc(OCCOC)c(OCCOC)cc23)c1 [erlotinib, N-(3-ethynylphenyl)-6,7-bis(2-methoxyethoxy)quinazolin-4-amine] |  | increased sensitivity | increased sensitivity | killing of cells by erlotinib (MDA231 cells; MDA 231 cells on collagen matrix, transfected with siRNA nonhomologous to LOX or LOXL2, FIG. 14): resistant to killing
Nc1ccn([C@@H]2O[C@H](CO)[C@@H](O)C2(F)F)c(=O)n1 [gemcitabine] | increased sensitivity | increased sensitivity | increased sensitivity | 
CN(Cc1cnc2nc(N)nc(N)c2n1)c1ccc(C(=O)N[C@@H](CCC(=O)O)C(=O)O)cc1 [methotrexate] | increased sensitivity |  |  | 
LOX-targeted siRNA: short RNA homologous to regions near the 3' end of LOX mRNA, from Invitrogen: ACAGGGAUUGAGUCCUGGCUGUUAU (listed as RNA, chemistry not given here) |  |  |  | reduction of levels of LOX mRNA (LOX mRNA): over two-fold; effect of siRNA transfection on sensitivity of the cells to erlotinib (MDA231 cells; FIG. 14): greatly increased sensitivity; effect of siRNA on sensitivity of the cells to erlotinib (MDA231 cells): little or no effect
LOXL2-targeted siRNA: siRNA homologous to the second SRCR domain of LOXL2, from Invitrogen: UCAACGAAUUGUCAAAUUUGAACCC (listed as RNA, chemistry not given here) |  |  |  | reduction of levels of LOXL2 mRNA (LOXL2 mRNA): five-fold; effect of siRNA transfection on sensitivity of the cells to erlotinib (MDA231 cells; FIG. 14): greatly increased sensitivity; effect of siRNA on sensitivity of the cells to erlotinib (MDA231 cells): little or no effect
M20: monoclonal anti-LOXL2 antibody described in co-owned US 2009/0053224; variable regions SEQ ID NO: 12 and 13 (antibody, V domains shown) VH: MEWSRVFIFLLSVTAGVHSQVQLQQSGAELVRPGTSVKVSCKASGYAFTYYLIEWVKQRPGQGLEWIGVINPGSGGTNYNEKFKGKATLTADKSSSTAYMQLSSLTSDDSAVYFCARNWMNFDYWGQGTTLTVSS VL: MRCLAEFLGLLVLWIPGAIGDIVMTQAAPSVSVTPGESVSISCRSSKSLLHSNGNTYLYWFLQRPGQSPQFLIYRMSNLASGVPDRFSGSGSGTAFTLRISRVEAEDVGVYYCMQHLEYPYTFGGGTKLEIK |  |  |  | binding site on LOXL2 (LOXL2 [1]): binds to the SRCR3-4 domain of LOXL2; extent of inhibition of LOXL2 enzymatic activity (LOXL2 [2]): partial inhibitor; mode of inhibition of LOXL2 enzymatic activity (LOXL2 [2]): non-competitive inhibitor
